The results in this text go back to US20020091124A1, “2-acyl indole derivatives and their use as antitumor agents” (priority 2000, published 2002).

Where two headings read alike, the source gives them in different places.

Usually melting point stands for the temperature, or range, at which the solid turns liquid.

In series [1] the test system is human cervical carcinoma cell line KB/HeLa. The series can be described thus: XTT cytotoxicity test, KB/HeLa. Type of series: cell-based. (Tetrazolium assays rely on reduction of a dye to a coloured formazan, in cell work by metabolically active cells.)
The subject of the next series is T1, bovine brain tubulin.
T1 construct: The tubulin used in the assay was isolated from bovine brain using cycles of polymerization and depolymerization
The series can be described thus: Bovine tubulin polymerization assay. It is filed as biochemical. The following applies: inhibition of tubulin polymerization; read-out: Tubulin-hemmung/ IC50. On the procedure:
In an in vitro test, selected compounds were tested for inhibition of polymerization of bovine brain. In this test, tubulin purified by cycles of polymerization and depolymerization, polymerization being initiated by addition of GTP and heating, is used.
The tubulin used in the assay was isolated from bovine brain using cycles of polymerization and depolymerization. […] The appropriate amount of test substance, dissolved in 100% DMSO, is pipetted to this mixture. 10 μl of purified bovine tubulin (50-60 μg of tubulin per well) are then added. […] 200 μl/well of decolorizing solution (25 mM NaOH, 50% ethanol, 0.05 mM EDTA) are finally added using a pipette. Following a 20 minute incubation at room temperature on a shaker (400 rpm), the absorption of 600 nm [sic] is measured in a photometer. What is calculated is the inhibition in % based on the 100% value of a positive control (which contains no test substance), and/or, if a concentration/activity curve is plotted, the lC50 value.

The subject of another series is rat glioma cell line C6. The series can be described thus: XTT cytotoxicity test, C6. The following applies: 45 h, read-out: IC50 C6.
Series [2] relates to human glioma cell line A-172. The series can be described thus: XTT cytotoxicity test, A-172. The following applies: A 172, 45 h, read-out: IC50 A-172.
Series [3] deals with human glioma cell line U118. The series can be described thus: XTT cytotoxicity test, U118. The following applies: 45 h, read-out: IC50 U118.
Series [4] deals with human glioma cell line U373. The series can be described thus: XTT cytotoxicity test, U373. As to conditions: U373 MG, 45 h, read-out: IC50 U373.
For another series, the system named is RKO p21 cells. The series can be described thus: RKOp21 model, XTT assay. Type of series: cell-based. The following applies: Homo sapiens; Table 2; read-out: RKP p21 induced IC50. An excerpt: The model used for examining the cell cycle-specific action was the RKOp21 cell system (M. Schmidt et al. Oncogene19(20):2423-9, 2000). RKO is a human colon carcinoma line in which the cell cycle inhibitor p21^wafl is expressed induced by the ecdysone expression system and leads to an arrest of the cell cycle specifically in G1 and G2. Nonspecific substances inhibit proliferation independently of whether the RKO cell is arrested in G1 or G2 or not. In contrast, cell cycle-specific substances, such as, for example, tubulin inhibitors, are only cytotoxic if the cells are not arrested and the cell cycle is in progress. […] This underlines the arrest of the cell cycle in […] already found in the FACS analyses, and a cell cycle-specific action of the compounds tested.
The assay is carried out in 96-well plates. […] Comparison of the activity on induced and non-induced cells allows conclusions to be drawn about the mechanism of action (cell cycle specificity) of the therapeutics. Non-induced [sic] cells are sown at a cell count which is about four times higher than that of non-induced cells since, compared to non-induced cells, there is no further division during the assay (2×10^4 cells/well induced, about 0.6×10^4 cells/well not induced). The controls are untreated cells (+/− induction). Induction is carried out using 3 μM of muristerone A. On day 1, the cells are plated (+/− muristerone A) and incubated at 37° C. for 24 h. On day 2, the test substance is added (control DMSO) and incubation at 37° C. is continued for another 48 h, after which a standard XTT assay is carried out.

Series [5] concerns human glioblastoma cell line U373. Nature of the series: Cell cycle analysis by FACS. The following applies: U373, treated 24 h, FIG. 2. A general note: A flow cytometer gives signals particle by particle.
The next series concerns various glioma lines. Nature of the series: XTT cytotoxicity test, various glioma lines. Type of series: cell-based. An excerpt: The publication by M. Medarde et al. 1998, Eur. J. Med. Chem. Vol. 33, pp. 71-77 describes combretastatin analogs which have antitumor action in a proliferation assay with the tumor cell lines P388 (leukemia, murine), A549 (pulmonary carcinoma, human), HT29 (colon carcinoma, human) and Mel28 (melanoma, human).

Setting [6] is: read-out: Zytotoxizität KB/HeLa IC50.
The mark [7] stands for this setting: XTT test, 45 h incubation, read-out: IC50 KB/HeLa.

For `O=C(O)c1ccc(C(=O)c2cc3ccccc3[nH]2)cc1` [Example 107, 4-(1H-2-indolylcarbonyl)-1-benzenecarboxylic acid], the melting point was > 220 °C.
In the case of `COc1ccc2[nH]c(C(=O)c3ccc(Br)cc3)cc2c1` [Example D-65499, 5-methoxy-1H-2-indolyl(4-bromophenyl)-1-methanone], the IC50 in [1] (setting [6]) is ~0.3 µg/mL; with bovine brain tubulin, 4300 nM.
For `COc1ccc2[nH]c(C(=O)c3ccc(Cl)cc3)cc2c1` [Example D-65500, 5-methoxy-1H-2-indolyl(4-chlorophenyl)-1-methanone] the same measures were ~1 µg/mL and 4980 nM.
For `COc1ccc2[nH]c(C(=O)c3ccccc3OC)cc2c1` [Example D-68143, 5-methoxy-1H-2-indolyl(2-methoxyphenyl)-1-methanone], the IC50 is 98 nM in the series with rat glioma cell line C6; 73 nM in series [2]; 23 nM in series [3]; 29 nM in [4]; 35 nM in series [1] (setting [7]); 2120 nM in the series on bovine brain tubulin. The IC50 in the series on RKO p21 cells was found to be 28 nM.
As for `COc1cccc(C(=O)c2cc3cc(OC)ccc3[nH]2)c1` [Example D-68144, 5-methoxy-1H-2-indolyl(3-methoxyphenyl)-1-methanone], the IC50 with rat glioma cell line C6 amounted to 9.6 nM; in series [2] it was 15 nM; in series [3] it was 8.3 nM; in series [4] it was 5 nM; in series [1] (setting [7]), 6.6 nM; with bovine brain tubulin, 2420 nM. Further, the values for the IC50 in the series on RKO p21 cells and in the series on various glioma lines (read-out: inhibitory activity IC50 in various glioma lines) were 3.6 nM and 5 to 15 nM, respectively. In addition, the “cells in the metaphase of mitotic division (M-phase)” value in series [5] is on record as “concentration-dependent arrest of the cells in mitosis”. Besides, in the series with various glioma lines (compared with Medarde et al.), the “factor more active than compound 4d” value is 40-60.
As to `COc1ccc2[nH]c(C(=O)c3cc(OC)c(OC)c(OC)c3)cc2c1` [Example D-68150, 5-methoxy-1H-2-indolyl(3,4,5-trimethoxyphenyl)-1-methanone], the IC50 with rat glioma cell line C6 is 77 nM; in series [2], 18.5 nM; in series [3], 19.4 nM; in series [4], 19.7 nM; in [1] (45 h, read-out: IC50 KB/HeLa) it was 32 nM; in series [1] (setting [6]), 32 nM. Also, the IC50 was determined as 10000 nM in the series with bovine brain tubulin and 16.8 nM with RKO p21 cells. Further, the “cells in the metaphase of mitotic division (M-phase)” value in [5] is “concentration-dependent arrest of the cells in mitosis”.
On to `COc1ccc(C(=O)c2cc3cc(OC)ccc3[nH]2)c(OC)c1` [Example D-68172, 5-methoxy-1H-2-indolyl(2,4-dimethoxyphenyl)-1-methanone], for which the IC50 was 180 nM in the series on rat glioma cell line C6; 330 nM in series [2]; 119 nM in [3]; 75 nM in series [4]; 107 nM in series [1] (setting [7]); < 10000 nM in the series with bovine brain tubulin. Moreover, the IC50 in the series on RKO p21 cells came out at 136 nM.
Turning to `COc1ccc2[nH]c(C(=O)c3cccc4ccccc34)cc2c1` [Example D-68213, 5-methoxy-1H-2-indolyl(1-naphthalenyl)-1-methanone], the results for the IC50 (in series [1] (setting [6]); with bovine brain tubulin) were ~0.1 µg/mL and 2930 nM, respectively.
For `COc1ccc2[nH]c(C(=O)c3ccc(C)cc3)cc2c1` [Example D-68887, 5-methoxy-1H-2-indolyl(4-methylphenyl)-1-methanone], the IC50 is ~0.3 µg/mL in series [1] (setting [6]) and 1500 nM in the series with bovine brain tubulin.
Take `COc1ccc2[nH]c(C(=O)c3ccccc3F)cc2c1` [Example D-68888, 2-fluorophenyl(5-methoxy-1H-2-indolyl)-1-methanone]: the results for the IC50 (in [1] (setting [6]); with bovine brain tubulin) were ~0.2 µg/mL and 1030 nM, respectively.
For the compound `COc1ccc2[nH]c(C(=O)c3cccc(C(F)(F)F)c3)cc2c1` [Example D-68901, 5-methoxy-1H-2-indolyl(3-trifluoromethylphenyl)-1-methanone], the IC50 is ~0.01 µg/mL in [1] (setting [6]) and 1460 nM in the series on bovine brain tubulin.
`COc1ccc2[nH]c(C(=O)c3cc(C)ccc3C)cc2c1` [Example D-68906, 5-methoxy-1H-2-indolyl(2,5-dimethylphenyl)-1-methanone]: the values for the IC50 (in series [1] (setting [6]); with bovine brain tubulin) were ~0.2 µg/mL and 5190 nM, respectively.
As to `COc1ccc2[nH]c(C(=O)c3ccc(Cl)c(Cl)c3)cc2c1` [Example D-70026, 5-methoxy-1H-2-indolyl(3,4-dichlorophenyl)-1-methanone], the melting point was in the range of 190 to 192 °C. In addition, the IC50 in series [1] (setting [6]) is ~0.1 µg/mL. Moreover, the IC50 in the series on bovine brain tubulin was 2490 nM.
As for `COc1ccc2[nH]c(C(=O)c3ccccc3C)cc2c1` [Example D-70038, 5-methoxy-1H-2-indolyl(2-methylphenyl)-1-methanone], the figures for the IC50 (in series [1] (setting [6]); with bovine brain tubulin) were ~0.5 µg/mL and 4840 nM, respectively.
Take `NCOc1c(C(=O)c2ccccc2N)[nH]c2ccc(O)cc12` [Example D-70046]: the IC50 in [1] (setting [6]) was ~2 µg/mL; with bovine brain tubulin, 2440 nM.
For the compound `COc1ccc2[nH]c(C(=O)c3ccccc3N)cc2c1` [Example D-70047, 5-methoxy-1H-2-indolyl(2-aminophenyl)-1-methanone], the results for the IC50 (in series [1] (setting [6]); in the series on bovine brain tubulin) were ~2 µg/mL and 6680 nM, respectively.
For `COc1ccccc1C(=O)c1cc2cc(C)ccc2[nH]1` [Example D-70289, 5-methyl-1H-2-indolyl(2-methoxyphenyl)-1-methanone] the same measures were ~0.1 µg/mL and 3540 nM.
Regarding `COc1cc(OC)cc(C(=O)c2cc3cc(C)ccc3[nH]2)c1` [Example D-70316, 5-methyl-1H-2-indolyl(3,5-dimethoxyphenyl)-1-methanone], the melting point was in the range of 141 to 142 °C. In addition, the IC50 in the series with bovine brain tubulin worked out at 810 nM. Besides, the IC50 in the series with RKO p21 cells was determined as 17.9 nM.
Take `COc1ccc2[nH]c(C(=O)c3cccs3)cc2c1` [Example D-70438]: the IC50 in the series with bovine brain tubulin worked out at 2700 nM.
Consider `COc1ccc2[nH]c(C(=O)c3cccc(N)c3)cc2c1` [Example D-81167, 5-methoxy-1H-2-indolyl(3-aminophenyl)-1-methanone], for which the values for the IC50 (in series [1] (setting [6]); in the series on bovine brain tubulin) were 0.089 µg/mL and 990 nM, respectively.
On to `COc1ccc2[nH]c(C(=O)c3cccc(F)c3)cc2c1` [Example D-81187], for which the IC50 with bovine brain tubulin was determined as 390 nM; with RKO p21 cells, 16.8 nM.
As for `COc1ccc2[nH]c(C(=O)c3cccc(OC(F)(F)F)c3)cc2c1` [Example D-81194], the IC50 in series [1] (setting [6]) is 0.086 µg/mL; in the series with bovine brain tubulin, 1740 nM.
The matching figures for `COc1ccc2[nH]c(C(=O)c3cccc(SC(F)F)c3)cc2c1` [Example D-81196]: 0.134 µg/mL and 2050 nM.
For `COc1ccc2[nH]c(C(=O)c3cccc(O)c3)cc2c1` [Example D-81755], the results for the IC50 (in [1] (setting [6]); in the series on bovine brain tubulin) were 0.063 µg/mL and 660 nM, respectively.
On to `COc1ccc2[nH]c(C(=O)c3cccc(OC(=O)CCO)c3)cc2c1` [Example D-81756], for which the IC50 in series [1] (setting [6]) was determined as 0.093 µg/mL; in the series with bovine brain tubulin, 850 nM.
In the case of `CC(=O)O[C@H]1C(=O)[C@@]2(C)[C@H]([C@H](OC(=O)c3ccccc3)[C@]3(O)C[C@H](OC(=O)[C@H](O)[C@@H](NC(=O)c4ccccc4)c4ccccc4)C(C)=C1C3(C)C)[C@]1(OC(C)=O)CO[C@@H]1C[C@@H]2O` [Taxol, reference compound], the IC50 in the series on RKO p21 cells came out at 0.0078 µg/mL.
With `CC[C@]1(O)C[C@H]2CN(CCc3c([nH]c4ccccc34)[C@@](C(=O)OC)(c3cc4c(cc3OC)N(C=O)[C@H]3[C@@](O)(C(=O)OC)[C@H](OC(C)=O)[C@]5(CC)C=CCN6CC[C@]43[C@@H]65)C2)C1` [Vincristin, Vincristine, reference compound], the IC50 with bovine brain tubulin turned out to be 90 nM.
